# Assay results reported in PubChem BioAssay AID1645866 (Buhrlage Lab, Dana-Farber Cancer Institute and Novartis …, 2021).
# Calls of active or inactive are those of the source.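 How the source made its calls: active means in confirmatory dose-response testing, peak deubiquitinase inhibition of 30% or more; inactive means the rest.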
# Target: Ubiquitin carboxyl-terminal hydrolase 28 (Homo sapiens) (UniProt Q96RU2)
# Assay: Concentration-response biochemical assay confirming initial hits as inhibitors of ubiquitin-specific protease 28 (AID 1645866)
# Conditions: purified USP28, ubiquitin-rhodamine fluorescence, 30 min
# Sequence of Ubiquitin carboxyl-terminal hydrolase 28 (Homo sapiens) (Q96RU2 whole entry, looked up): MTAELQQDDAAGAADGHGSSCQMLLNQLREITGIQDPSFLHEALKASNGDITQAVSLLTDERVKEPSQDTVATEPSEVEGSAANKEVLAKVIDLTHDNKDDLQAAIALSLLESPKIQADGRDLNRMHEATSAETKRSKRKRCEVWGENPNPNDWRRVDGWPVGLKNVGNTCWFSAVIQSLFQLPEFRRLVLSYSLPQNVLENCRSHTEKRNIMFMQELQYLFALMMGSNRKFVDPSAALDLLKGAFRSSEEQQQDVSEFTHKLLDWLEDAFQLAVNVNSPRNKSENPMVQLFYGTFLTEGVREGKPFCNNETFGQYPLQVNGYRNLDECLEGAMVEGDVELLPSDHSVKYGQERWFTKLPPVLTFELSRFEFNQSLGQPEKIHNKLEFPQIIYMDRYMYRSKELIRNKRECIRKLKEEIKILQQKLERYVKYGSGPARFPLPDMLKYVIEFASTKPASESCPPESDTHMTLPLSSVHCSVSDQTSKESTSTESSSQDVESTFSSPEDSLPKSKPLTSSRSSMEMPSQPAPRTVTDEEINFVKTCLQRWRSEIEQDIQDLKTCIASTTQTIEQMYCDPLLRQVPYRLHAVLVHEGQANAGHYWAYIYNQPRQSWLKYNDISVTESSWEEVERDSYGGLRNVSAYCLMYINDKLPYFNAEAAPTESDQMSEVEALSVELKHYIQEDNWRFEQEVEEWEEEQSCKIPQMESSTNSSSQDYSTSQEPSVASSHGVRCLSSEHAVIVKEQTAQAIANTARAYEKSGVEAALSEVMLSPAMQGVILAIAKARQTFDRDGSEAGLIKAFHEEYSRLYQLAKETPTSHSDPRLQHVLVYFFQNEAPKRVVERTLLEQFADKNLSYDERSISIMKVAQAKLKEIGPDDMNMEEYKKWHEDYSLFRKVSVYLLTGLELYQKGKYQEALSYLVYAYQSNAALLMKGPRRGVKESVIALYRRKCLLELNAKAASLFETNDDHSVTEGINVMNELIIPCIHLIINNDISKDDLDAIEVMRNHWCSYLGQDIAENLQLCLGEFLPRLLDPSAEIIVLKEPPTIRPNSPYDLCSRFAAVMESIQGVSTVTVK
row,SMILES,IC50
1,COc1ccc(NC(=O)c2ccc(Nc3nnc(C)c4ccccc34)cc2)cc1,22.5 µM
2,COc1ccccc1NC(=O)CNC(=O)c1nn(-c2ccc(OC)c(OC)c2)c(=O)c2ccccc12,24.8 µM
3,Cc1nc(-c2ccc(-n3cc(C(=O)Nc4cccc(F)c4)c(C)n3)cc2)no1,42.5 µM
4,CCOc1ccccc1NC(=O)COc1cc(OC)ccc1C(=O)c1ccccc1,4.45 µM
5,O=c1[nH]c2ccc(S(=O)(=O)Nc3ccc(O)c4ccccc34)cc2[nH]1,20 µM
6,COc1ccc(-c2cc(C(C)=O)c(C)n2CCC(=O)Nc2ccc(OC)cc2OC)cc1,43.1 µM
7,CCOc1ccccc1C(=O)Oc1ccc2c(C)cc(=O)oc2c1,23.2 µM
8,Cc1noc(NS(=O)(=O)c2ccc(NC(=O)CSc3ccc4ccccc4c3)cc2)c1C,> 50 µM (inactive)
9,CCOc1ccccc1C(=O)NCC(=O)OC(C(=O)c1c[nH]c2ccccc12)c1ccccc1 (configuration not stated),> 50 µM (inactive)
10,O=S(=O)(Nc1ccc2oc(-c3ccncc3)nc2c1)c1ccccc1,40.8 µM
11,Cc1cnnn1-c1ccc(C(=O)Nc2cc(Cl)ccc2Cl)cc1,43.5 µM
12,COC1=C(C2=C(OC)C(=O)c3cc4c(c(O)c3C2=O)C(=O)OC(C)C4)C(=O)c2c(cc3c(c2O)C(=O)OC(C)C3)C1=O (configuration not stated),1.05 µM
13,CCOc1ccc2[nH]c(=O)c(CN(C(=O)c3cccs3)C3CCCC3)cc2c1,14.1 µM
14,CCCCn1c(=O)c(CCC(=O)OCC(=O)Nc2ccc3c(c2)OCCO3)nc2ccccc21,3.65 µM
15,CCOC(=O)c1cn(C2CC2)c2cc(N3CCNCC3)c([N+](=O)[O-])cc2c1=O,> 50 µM (inactive)
16,CCc1ccc(-c2nc(SCC(=O)Nc3ccc4[nH]c(=O)[nH]c4c3)n[nH]2)cc1,23.5 µM
17,O=C(Nc1cc(-c2cccnc2)no1)c1ccc(F)c(F)c1,10.9 µM

row,SMILES,IC50
1,CCCNC(=O)c1ccn(-c2ccc3ccc(-c4cnn(C)c4)cn23)n1,> 50 µM (inactive)
2,C=C1CCC2[C@](C)(CCC[C@]2(C)C(=O)OC)[C@H]1CCc1ccoc1/C=C/C(=O)O (some centres not stated),29.1 µM
3,COc1ccc(NC(=O)Nc2cccc(-c3nnc(-c4ccccc4)o3)c2)cc1OC,21.7 µM
4,Cc1cc2c(cc1C)NC(CC(=O)Nc1ccc(O)cc1)C(=O)N2 (configuration not stated),25 µM
5,O=C(Nc1ccc2ccccc2n1)c1ccc(Cl)cc1,6.26 µM
6,c1ccc(-n2nnc(-c3noc(-c4ccccn4)n3)c2-c2ccncc2)cc1,23.9 µM
7,CC1(C(=O)NCc2ccccc2)Cn2c(cc3ccccc32)C(=O)N1Cc1ccccc1 (configuration not stated),48.7 µM
8,Cc1nn(-c2cccc(F)c2)c2c1C(C(=O)c1ccc(Cl)s1)CC(=O)N2 (configuration not stated),48.6 µM
9,COc1ccc(CCNC(=O)c2c(N)n(-c3cccc(Cl)c3)c3nc4ccccc4nc23)cc1,> 50 µM (inactive)
10,CCCOc1ccc(C(=O)Nc2ccc(S(=O)(=O)Nc3cc(C)nc(C)n3)cc2)cc1,31.5 µM
11,COc1cccc(CNC(=O)C2=Cc3cccc(OC)c3OC2)c1,8.65 µM
12,Cc1ccc(Cn2nnc(-c3ccccc3Cl)n2)cc1,13.9 µM
13,CCOC(=O)c1ccc(NC(=O)COc2cccc3c2CCN(CC)C3=O)cc1,5.4 µM
14,Cc1cccc(-n2cnc(C(=O)NCc3ccc(F)cc3)c2)n1,35.6 µM
15,Cc1nc2sc(C(=O)Nc3ccccc3Br)c(N)c2c(C)c1C,2.01 µM
16,CCC(C(=O)NCc1ccncc1)N(c1cccc(Cl)c1)S(C)(=O)=O (configuration not stated),> 50 µM (inactive)

# Now from value to compound:
row,IC50,SMILES
1,30.5 µM,CS(=O)(=O)NC1CCCN(C(=O)Nc2cccc3ccccc23)C1 (configuration not stated)
2,> 50 µM (inactive),CC(C(=O)Nc1ccccc1)n1cnc2nc(N3CCCCC3)ncc2c1=O (configuration not stated)
3,> 50 µM (inactive),COc1ccc(-n2nnc(C(=O)Nc3ccccc3)c2N)cc1
4,9.8 µM,Cc1ccc(NC(=O)c2sc(=S)n(CCc3ccccc3)c2N)cc1
5,33.6 µM,O=C(Cn1nc2ccc(C(=O)NCc3ccccc3)cn2c1=O)Nc1ccc2c(c1)OCO2
6,> 50 µM (inactive),CCOC(=O)c1cc2c(ccn2C)n1CC(=O)N1CCc2ccccc2C1
7,4.68 µM,O=C(Nc1cccc(Cl)c1)N1CCC(c2cc(-c3ccco3)n[nH]2)CC1
8,19.4 µM,COc1cccc(N2CCN(C(=O)Nc3ccc4c(c3)NC(=O)CO4)CC2)c1
9,> 50 µM (inactive),O=C(c1cscn1)N1CCC2(CC1)CC1(CO2)Nc2ccccc2-n2cccc21 (configuration not stated)
10,> 50 µM (inactive),Cn1c(C(=O)NCc2ccccn2)cc2c(=O)[nH]c3ccccc3c21
11,32.3 µM,O=C(Nc1ccncc1)c1ncoc1-c1cccc(Cl)c1
12,25.8 µM,O=C(c1cc(-c2ccc(Cl)cc2)n[nH]1)N1CCN(C(=O)c2ccco2)CC1
13,> 50 µM (inactive),O=S1(=O)CCN(Cc2ccccc2)c2c(F)nc(N3CCCCC3)c(F)c21
14,26.4 µM,COc1ccc(CN2CCCC23CCCN(C(=O)CCc2cccnc2)C3)cc1F (configuration not stated)
15,> 50 µM (inactive),Cc1ccccc1NC(=O)Cn1cc(-c2nc(C3CC3)no2)ccc1=O
16,> 50 µM (inactive),CN[C@H]1CC2(CCN(C(=O)CCCn3cccn3)CC2)OC[C@]1(C)O
17,41.2 µM,Cc1cc(=O)oc2cc(OCC(=O)Nc3cc(Cl)ccc3N3CCOCC3)ccc12
18,2.4 µM,O=C(Nc1ccc2c(c1)OCO2)C1CCN(Cc2nc3ccccc3s2)CC1
19,37.5 µM,CC(C)CCN1C(=O)C2C(C(=O)Nc3ccc(Oc4ccccc4)cc3)C3C=CC2(O3)C1C(=O)NC1CCCCC1 (configuration not stated)
